The source of these data is ChEMBL document CHEMBL3272329, “Stereochemical analogs of a muscarinic, ganglionic stimulant. 2. Cis and trans olefinic, epoxide, and cyclopropane analogs related to 4-[N-(3-chlorophenyl)carbamoyloxy]-2-butynyltrimethylammonium chloride (McN-A-343)” (1976).

Test [1] deals with Felis catus. As to the kind of experiment: Induction of ganglion stimulating activity in cat assessed as increase in blood pressure at 1 to 300 ug/kg, iv by […]. The test is classed as functional.
The species entered for test [2] is Oryctolagus cuniculus. The test can be described thus: Agonist activity at muscarinic receptor in rabbit ileum assessed as […]. The test is classed as tissue-based.
For test [3], the species on record is Oryctolagus cuniculus. The test can be described thus: Agonist activity at muscarinic receptor in rabbit ileum assessed as […] relative to acetylcholine. The test is classed as tissue-based.
The subject of test [4] is Felis catus. The test can be described thus: Induction of ganglion stimulating activity in iv dosed cat assessed as slight increase in blood pressure administered at 300 ug/kg, iv by […]. The test is classed as functional, organism-based.

Calls of active or inactive are those of the source. No cut-off for these calls is given here.

Consider `C[N+](C)(C)C[C@@H]1C[C@H]1COC(=O)Nc1ccc(Cl)cc1`, for which the result in the test on Felis catus [1] was inactive. As for `C[N+](C)(C)CC#CCOC(=O)Nc1ccc(Cl)cc1`, the result in the test with Felis catus [1] was Active. For the molecule `C[N+](C)(C)C[C@H]1O[C@@H]1COC(=O)Nc1ccc(Cl)cc1` (relative stereo), the result in the test on Felis catus [1] was Active. Besides, the result in the test listed under Oryctolagus cuniculus [2] was inactive. Take `C[N+](C)(C)C/C=C/COC(=O)Nc1ccc(Cl)cc1.[I-]`: the “fold change (FC)” value in the test on Felis catus [1] was determined as 3. Further, the Activity in the test listed under Oryctolagus cuniculus [3] came to 1%. As to `C[N+](C)(C)C[C@H]1C[C@H]1COC(=O)Nc1ccc(Cl)cc1` (relative stereo), in the test with Felis catus [1], the result was inactive.

As for `CN(C)C[C@@H]1C[C@@H]1CO` (relative stereo), the result in the test filed under Oryctolagus cuniculus [2] was inactive.

Regarding `C[N+](C)(C)C/C=C\COC(=O)Nc1ccc(Cl)cc1.[I-]`, the “fold change (FC)” value with Felis catus [1] was 3. For the same molecule, the outcome in the test with Felis catus [4] was Active. For the same molecule, the result in the test listed under Oryctolagus cuniculus [2] was inactive.

For the molecule `C[N+](C)(C)C[C@H]1O[C@H]1COC(=O)Nc1ccc(Cl)cc1` (relative stereo), the result in the test with Felis catus [1] was Active. Moreover, the outcome in the test filed under Oryctolagus cuniculus [2] was inactive. For the molecule `CN(C)C[C@H]1C[C@@H]1CO` (relative stereo), in the test filed under Oryctolagus cuniculus [2], the result was inactive. As to `C[N+](C)(C)C/C=C/COC(=O)Nc1cccc(Cl)c1`, the outcome with Felis catus [4] was Active. As for `C[N+](C)(C)CC#CCOC(=O)Nc1cccc(Cl)c1`, in the test on Felis catus [1], the result was Active.
